# The supplement of paper PMC10307832
# Key:
# Assay in all cases: relative viability (nuclei count vs DMSO), 5 days (fraction); higher = more cells survive
# Ispinesib + Linsitinib = compound: Cc1ccc(C(=O)N(CCCN)[C@@H](c2nc3cc(Cl)ccc3c(=O)n2Cc2ccccc2)C(C)C)cc1 [Ispinesib] + C[C@]1(O)C[C@@H](c2nc(-c3ccc4ccc(-c5ccccc5)nc4c3)c3c(N)nccn32)C1 [Linsitinib] (partner 1 µM)
# Summary of the method: (§1)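 Lung cancer cell lines were seeded in 1536-well plates and dosed by pin tool the next day, with either a single drug or a fixed anchor-drug dose combined with five library-drug doses (not always all listed) spaced in √10 steps. Five days later, one step fixed the cells and stained their nuclei (final 0.05% Triton X-100, 1% formaldehyde, 1 ug/ml Hoechst), and nuclei were counted on 4× images. Relative viability is the nuclei count in treated wells divided by the count in vehicle wells, and each value is the median of duplicate plates.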
# Ispinesib + Pemetrexed = compound: Cc1ccc(C(=O)N(CCCN)[C@@H](c2nc3cc(Cl)ccc3c(=O)n2Cc2ccccc2)C(C)C)cc1 [Ispinesib] + Nc1nc2[nH]cc(CCc3ccc(C(=O)N[C@@H](CCC(=O)O)C(=O)O)cc3)c2c(=O)[nH]1 [Pemetrexed] (partner 0.2 µM)
# Summary of the method: as §1
# Linsitinib + Phenformin = compound: C[C@]1(O)C[C@@H](c2nc(-c3ccc4ccc(-c5ccccc5)nc4c3)c3c(N)nccn32)C1 [Linsitinib] + N=C(N)NC(=N)NCCc1ccccc1 [Phenformin] (partner 250 µM)
# Summary of the method: as §1
# Ispinesib + Luminespib = compound: Cc1ccc(C(=O)N(CCCN)[C@@H](c2nc3cc(Cl)ccc3c(=O)n2Cc2ccccc2)C(C)C)cc1 [Ispinesib] + CCNC(=O)c1noc(-c2cc(C(C)C)c(O)cc2O)c1-c1ccc(CN2CCOCC2)cc1 [Luminespib] (partner 0.01 µM)
# Summary of the method: as §1
cell line,measurement,setting,value
UMC-11,relative viability,Ispinesib + Linsitinib; first compound 0.001 µM,1.06
same,relative viability,Ispinesib + Linsitinib; first compound 0.003162 µM,1.05
same,relative viability,Ispinesib + Linsitinib; first compound 0.01 µM,1.05
same,relative viability,Ispinesib + Linsitinib; first compound 0.03162 µM,0.449
same,relative viability,Ispinesib + Linsitinib; first compound 0.1 µM,0.244
same,relative viability,Ispinesib + Pemetrexed; first compound 0.001 µM,0.844
same,relative viability,Ispinesib + Pemetrexed; first compound 0.003162 µM,0.829
same,relative viability,Ispinesib + Pemetrexed; first compound 0.01 µM,0.868
same,relative viability,Ispinesib + Pemetrexed; first compound 0.03162 µM,0.451
same,relative viability,Ispinesib + Pemetrexed; first compound 0.1 µM,0.235
same,relative viability,Linsitinib + Phenformin; first compound 0.01 µM,0.332
same,relative viability,Linsitinib + Phenformin; first compound 0.03162 µM,0.29
same,relative viability,Linsitinib + Phenformin; first compound 0.1 µM,0.343
same,relative viability,Linsitinib + Phenformin; first compound 1 µM,0.321
same,relative viability,Ispinesib + Luminespib; first compound 0.001 µM,0.919
same,relative viability,Ispinesib + Luminespib; first compound 0.003162 µM,1.02
same,relative viability,Ispinesib + Luminespib; first compound 0.01 µM,1.05
same,relative viability,Ispinesib + Luminespib; first compound 0.03162 µM,0.451
same,relative viability,Ispinesib + Luminespib; first compound 0.1 µM,0.323
